According to the METLIN SMRT retention time set (Domingo-Almenara et al. 2019):

assay: gradient 5% acetonitrile 3 min, to 50% in 2 min, to 85% in 15 min, held 3 min, 100 µL/min; settings: column: Zorbax Extend-C18 2.1 x 50 mm; eluents: water / acetonitrile, 0.1% formic acid
Procedure, shortened: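 In both positive and negative ionization mode, a quadrupole time-of-flight mass spectrometer coupled to HPLC analyzed pure standards run in mixtures of ~100 molecules. The Zorbax Extend-C18 column (2.1 × 50 mm, 1.8 μm) was operated at 100 μL/min with water and acetonitrile, each containing 0.1% formic acid. The dead volume was 40 μL and the dwell volume 900 μL. Retention time came from adduct peaks that were computationally picked and individually inspected by hand.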

Row | SMILES | RP-LC retention time
1 | COc1ccccc1CCNC(=O)CCCn1cccc1 | 774 s
2 | COc1cc(C(=O)N(C)CCc2noc(C3CCCCC3)n2)cc(OC)c1OC | 814 s
3 | Cc1nc(Nc2ccc(F)cn2)sc1C(=O)N1CCC2(CC1)OCCO2 | 686 s
4 | O=C(c1cc(-c2cccc(Cl)c2)nc2ccccc12)N1CCN(c2ccccn2)CC1 | 766 s
5 | Clc1ccc(-c2noc(CN3CCN(c4ccccn4)CC3)n2)cc1 | 679 s
6 | CC(=O)c1ccc(NC(=O)c2noc3c2CCCC3)cc1 | 871 s
7 | COc1cccc(NC(=O)C2CCN(S(=O)(=O)c3cn(C)cn3)CC2)c1 | 656 s
8 | COc1cc([C@@H]2c3cc4c(cc3[C@@H](O)[C@H]3COC(=O)[C@H]23)OCO4)cc(OC)c1O | 680 s
9 | COCCn1cc2c3c(cccc31)CN(C(=O)Nc1cc(F)cc(F)c1)CC2 | 963 s
10 | Cc1cc2[nH]c(C(=O)Nc3ccccc3Br)c(CN(C)C)c2s1 | 659 s
11 | c1ccc(-c2cn3ccccc3n2)cc1 | 644 s
12 | COc1cccc(-n2nnc(C(=O)O)c2-c2ccncc2)c1 | 628 s
13 | Cc1cccc(NC(=O)CN2CCN(Cc3ccc(F)cc3)C(=O)C2=O)c1C | 732 s
14 | CCN1CCN(c2cc(C)c3cc(NC(=O)COc4ccccc4)ccc3n2)CC1 | 609 s
15 | CCc1ccc(S(=O)(=O)Nc2cc(-c3cn4ccc(C)cc4n3)ccc2C)cc1 | 745 s
16 | O=S(=O)(c1ccc(Cl)cc1)N1CCC2(CC1)NCCN=C2NCc1ccccc1F | 730 s
17 | CC1CCN(C(=O)c2ccc(OCC3CCCN(C(=O)c4ccc(F)cc4)C3)cc2)CC1 (centres undefined) | 995 s
18 | CC(NC(=O)c1ccco1)C(=O)NCc1nn(C)c2ccccc12 (centres undefined) | 646 s
19 | COc1ccccc1C(CNC(=O)c1cc(=O)c2cc(C)c(C)cc2o1)N(C)C (centres undefined) | 651 s
20 | O=C(Cc1cccs1)N1CCN(c2nnc3ccc(C(F)(F)F)cn23)CC1 | 666 s
21 | O=C(Cc1nnc(-c2cccc(F)c2)o1)NCC1CC1 | 722 s

Row | SMILES | RP-LC retention time
22 | CC(=O)Nc1nc(-c2ccc3c(c2)N(C)C(=O)CO3)cs1 | 700 s
23 | COC(=O)c1ccccc1S(=O)(=O)Nc1cccn2c(C3CCC3)nnc12 | 772 s
24 | Cc1cccc(NC(=O)CCCCC(=O)O)n1 | 528 s
25 | CC(C)c1ccc(Nc2nc3ccncc3n(Cc3ccccc3)c2=O)cc1 | 886 s
26 | C=C(C)[C@H]1O[C@H]2CC[C@@]3(C)[C@@](O)(CC[C@H]4[C@@H]5OC(C)(C)[C@H]6C[C@@H]7C(=C)Cc8c(Cl)cc9[nH]c(c5c9c8[C@@]76O)[C@@]43C)[C@]23O[C@@H]3[C@H]1O | 1180 s
27 | Cc1sc(NC(=O)C(C)C)nc1-c1ccc2c(c1)NC(=O)CO2 | 750 s
28 | CNC(=O)NC(=O)COc1cc(=O)n2cccc(C)c2n1 | 579 s
29 | O=C1[C@H](Cc2ccc(O)cc2)N2C(=O)CCN(C(=O)NCc3ccccc3)[C@H]2CN1Cc1cccc2ccccc12 | 847 s
30 | Cc1cc(C(F)(F)F)nc(Nc2nc(C)c3ccccc3n2)n1 | 679 s
31 | Cc1ccsc1CN1CCn2nnc(CCC(=O)N3CCCC3)c2C1 | 646 s
32 | CC(=O)N(C)CCc1noc(C2CN(C(=O)Cc3cccs3)C2)n1 | 627 s
33 | Cc1cc(C)c(CNC(=O)C2CCCN(c3cnc4nccnc4c3)C2)c(C)c1 (centres undefined) | 819 s
34 | CCN(CC)CCCNC(=O)C(C)n1c(=O)c(C(F)(F)F)nc2cc(C)c(C)cc21 (centres undefined) | 740 s
35 | C[C@H](Cc1ccccc1)Nc1ncnc2c1ncn2[C@@H]1O[C@H](CO)[C@H](O)C1O (some centres undefined) | 696 s
36 | COc1cc(CN2CC(Oc3ccc(-c4noc(-c5ccncc5)n4)cc3)C2)cc(OC)c1 | 728 s
37 | CC1(C(=O)NCc2ccc(F)cc2)CCN(C(=O)Nc2ccccc2C(F)(F)F)CC1 | 877 s
38 | O=C(NCCc1csc(C2CCCN(C(=O)C3CCCC3)C2)n1)C1CCC1 (centres undefined) | 718 s
39 | Cc1cc(S(=O)(=O)N2CCn3c(nnc3C3CCN(C(C)C)C3)C2)ccc1Cl (centres undefined) | 637 s
40 | O=C(NCc1ccc2c(c1)CCCN2C(=O)C1CCC1)c1cc(F)ccc1Cl | 884 s
41 | CCCNc1cc(N2CCC(CCC(=O)NCC)CC2)ncn1 | 595 s

The remaining lines, values ahead:

Row | RP-LC retention time | SMILES
42 | 706 s | Cc1noc(C)c1CNC(=O)c1cc(-c2ccccc2)n[nH]1
43 | 695 s | CCOc1ccc(NC(=O)C2=C(C)NC(=O)NC2c2ccc([N+](=O)[O-])cc2)cc1 (centres undefined)
44 | 880 s | O=C(CN1CCc2ccccc2C1C(=O)N1CCCC1)NCc1ccc(C(F)(F)F)cc1 (centres undefined)
45 | 616 s | Cn1cc(CCN2CCN(S(=O)(=O)c3ccc(C#N)cc3)CC2)c2cccnc21
46 | 1180 s | Cc1cc(Cl)ccc1OCc1nc(-c2ccc3c(c2)nnn3CCC(=O)N2CCCCCC2)no1
47 | 690 s | CCOC(=O)C1C(=O)NC(N2CCc3ccccc32)=NC1c1ccco1 (centres undefined)
48 | 762 s | O=C1Nc2cc(C(=O)N3CCCCC3)ccc2N2CCCCC12 (centres undefined)
49 | 664 s | Cn1cc(CN2CCN(C(=O)c3cc(-c4cccs4)[nH]n3)CC2)c2ccccc21
50 | 878 s | CCn1cnc(S(=O)(=O)N2CCC(C(=O)N3CCN(c4cc(C)ccc4C)CC3)CC2)c1
51 | 775 s | O=C(Nc1ccccc1)[C@@H]1OCC(=O)N(C2CC2)[C@H]1c1ccccc1
52 | 720 s | CCn1cc(C)c(C(=O)O)c1CC(=O)N1CCCCCC1
53 | 571 s | O=C(CN1CCC(COCc2ccccc2)CC1)NCc1ccco1
54 | 784 s | Nc1ccc(SCc2nnc(-c3cccc(F)c3)o2)cc1
55 | 686 s | COCCNC(=O)C1CCCN(C(=O)c2cc(C)cc(C)c2)C1 (centres undefined)
56 | 921 s | CC(C)c1cccc(NC(=O)C2CCN(C(=O)c3ncn4c3COC(c3ccccc3)C4)CC2)c1 (centres undefined)
57 | 798 s | Cc1ccc(C(=O)NC2CCN(c3cc(-c4cccs4)[nH]n3)C2)cc1F (centres undefined)
58 | 932 s | CCOC(=O)c1nc(Nc2ccc(CC)cc2)c2ccccc2n1
59 | 611 s | Cc1ccc(NC(=O)Cn2c(N)nc(C)c(C)c2=O)cc1
60 | 996 s | Cc1c(Cl)cccc1NC(=O)N1CCc2nc(-c3ccc(F)cc3)ncc2C1
61 | 959 s | O=c1c2sccc2n(Cc2nc(-c3ccccc3)no2)c(=O)n1-c1cccc(F)c1
62 | 590 s | CC(=O)N1CCc2cc(N3CC(C(=O)NCC4CCCO4)CC3=O)ccc21 (centres undefined)
63 | 727 s | Cc1ccc(S(=O)(=O)NC2CCN(C(=O)C3CC(=O)N(C4CCCC4)C3)CC2)cc1 (centres undefined)
64 | 790 s | COCCN1CCC2(CC1)CN(Cc1ccc(F)cc1Cl)Cc1ccccc1O2
65 | 671 s | CCc1ccc(CNC(=O)C2CC(=O)N(c3ccc4oc(C)nc4c3)C2)cc1 (centres undefined)

Row | RP-LC retention time | SMILES
66 | 964 s | COc1cc(C(=O)Nc2nc(-c3ccc4c(c3)N(C)C(=O)CO4)c(C)s2)cc(OC)c1OC
67 | 809 s | Cc1ccc(Cl)cc1NC(=O)C(C)n1cnc2nc3c(cc2c1=O)CCCC3 (centres undefined)
68 | 724 s | O=C(c1nc(-c2cccc(F)c2)n2c1CCCCC2)N1CCN(c2ncccn2)CC1
69 | 883 s | COc1ccccc1NC(=O)N1C[C@H](c2nc(-c3ccccc3)no2)[C@@H](C)C1
70 | 847 s | O=C(NCc1ccccc1Cl)C1CCN(c2nnc(-c3ccccc3)o2)CC1
71 | 724 s | Cc1cc(=O)n(CC(=O)Nc2cc(F)cc(F)c2)c(N2CCOCC2)n1
72 | 702 s | CCn1c(=O)sc2cc(S(=O)(=O)N3CCC(C(=O)Nc4cc(C)ccn4)CC3)ccc21
73 | 559 s | Cc1nc(-c2ccncc2)nc2c1CCC(=O)N2Cc1ccccn1
74 | 832 s | COCCNC(=O)C1CCN(c2nc3ccc(-c4ccccc4)nc3s2)CC1
75 | 690 s | CC(=O)N1CCc2cc(N3CC(C(=O)NCc4cc(F)cc(F)c4)CC3=O)ccc21 (centres undefined)
76 | 599 s | Cc1nccn1C1CN(C(=O)C(C)Oc2ccccc2)C1 (centres undefined)
77 | 996 s | COc1ccc(Cl)cc1NC(=O)CSc1nnc2c3cc(-c4ccc(F)cc4)nn3ccn12
78 | 897 s | CCS(=O)(=O)N1CCC(c2noc(-c3ccccc3)n2)CC1
79 | 740 s | CCn1cc(CCNC(=O)c2ccccc2C(F)(F)F)c2cccnc21
80 | 619 s | O=C(NCCCN1CCCC1=O)c1ccc(-c2ccc(N3CCSCC3)nc2)cc1
81 | 708 s | Cc1ccc(NC(=O)C2CC(=O)N(c3n[nH]c4cccc(F)c34)C2)cc1 (centres undefined)
82 | 608 s | CCN(CC)CCCNC(=O)c1ccc2c(c1)N(C)C(=O)C1CCCCN21 (centres undefined)
83 | 601 s | CCN(CC)CCNC(=O)CN1C(=O)C2CCCCN2c2ccc(C(=O)N(C)C)cc21 (centres undefined)
84 | 554 s | O=C(CNC(=O)c1ccncc1)Nc1nc2ccccc2[nH]1
85 | 600 s | CCn1c(CC2CCN(C(=O)Nc3ccc(C)cc3)C2)nc2cccnc21 (centres undefined)
86 | 965 s | COC(=O)c1cc(C)nc2c1c(=O)n(Cc1c(F)cccc1Cl)c(=O)n2C
87 | 621 s | FC1(F)CN[C@H](c2nc(-c3cccnc3)no2)C1
88 | 952 s | Cc1ccc(C(=O)Nc2nc(-c3ccc4c(c3)N(C)C(=O)CO4)cs2)cc1
89 | 617 s | CCCN(CCC)CC(=O)N1CC(=O)Nc2ccccc21
